The record followed here is ChEMBL document CHEMBL1131081, “Beta-amino-thiols inhibit the zinc metallopeptidase activity of tetanus toxin light chain” (J Med Chem, 1998).

The term Ki denotes the equilibrium dissociation constant of an inhibitor or competing ligand from its target. Read a high Ki as a looser hold on the target.

This test in a line: Binding affinity against S1 subsite of the Tetanus neurotoxin (TeNt). Set-up: species or system Clostridium tetani.
In turn, `NC(=O)c1cccc(C(N)CS)c1` (stereo unspecified) showed a Ki of 125 µM.

With `NC(CS)c1cccc(S(N)(=O)=O)c1` (stereo unspecified), the inhibition constant Ki stood at 35 µM. Under `NCC(CS)CCS(=O)(=O)O` (stereo unspecified) stands 500 µM. The molecule `NC(CS)c1cccc(S(=O)(=O)O)c1` (stereo unspecified) returned a Ki of 40 µM.

The molecule `CN(C)C(=O)c1cccc(C(N)CS)c1` (stereo unspecified) registered a Ki of 250 µM. For `NC(CS)CCS(N)(=O)=O` (stereo unspecified), the affinity corresponds to a Ki of 100 µM.
